Source: US11548903B2, “Bicyclic thiazine and oxazine derivatives as beta-secretase inhibitors and methods of use” (AMGEN INC., priority 2016, dated 2023)
Read-outs that look alike come from different tables or passages of the source.

Key:
[1] = molecular target: human recombinant BACE1 (Homo sapiens (Human), UniProt P56817); assay: In vitro enzymatic BACE1 FRET assay; type: biochemical; conditions: read-out: BACE1 Enzyme IC50
Protocol: (§1) In Vitro Enzymatic BACE1 and BACE2 FRET (Fluorescence Resonance Energy Transfer) Assays […] These recombinant proteins were further purified using Ni-NTA affinity chromatography (Qiagen). […] The assay was effectively started by the addition of FRET substrate (50 nM) and the combination was incubated for one hour. The FRET assay was terminated by the addition of tris buffer, which raised the pH to neutrality, and the fluorescence was determined. The FRET substrate was a peptide with commercially available fluorophore and quencher, on opposite sides of the BACE cleavage site. The specific FRET substrate used in this assay was made by Amgen in-house. Commercially available FRET substrates, for example, the FRET substrate offered with the BACE1 FRET Assay Kit sold by ThermoFisher Scientific (Catalog Number P2985), may be used in this assay with the appropriate modifications, which are within the purview of the ability of a person with ordinary skill in the art. Proteolytic cleavage of the FRET substrate released quenching of fluorescence (excitation 488 nm and emission 590 nm).

[2] = test system: BACE1 (Aβ40 from cells stably expressing Amyloid Precursor Protein); assay: In vitro BACE1 cell-based assay (Aβ40 in conditioned medium, HTRF)
Protocol: In Vitro BACE1 Cell-Based Assay The cell-based assay measures inhibition or reduction of Aβ40 in conditioned medium of test compound treated cells expressing amyloid precursor protein. Cells stably expressing Amyloid Precursor Protein (APP) were plated at a density of 45K cells/well in 384 well plates (Corning/BioCoat 354663). The test compounds were then added to cells in 22-point dose response concentrations with the starting concentration being 62.5 μM. The compounds were diluted from stock solutions in DMSO and the final DMSO concentration of the test compounds on cells was 0.625%. The cells were cultivated overnight at 37° C. and 5% CO2 in DMEM supplemented with 10% FBS. After 24 h of incubation with the test compounds, the conditioned media was collected and the Aβ40 levels were determined using HTRF (Homogeneous Time Resolved Fluorescence). […] The HTRF to detect Aβ40 was performed in 384 well plates (Costar 3658). The antibody pair that were used to detect Aβ 40 from cell supernatants were ConfAb40 antibody (Amgen in-house) and biotinylated 6E10 (BIOLEGEND). As an alternative to ConfAb40, a commercially available antibody, Anti-beta Amyloid 1-40 antibody [BDI350] from Abcam, Cambridge, Mass. 02139-1517 (Product code: ab20068), may be used in this assay. […] The conditioned media was incubated with above antibodies and Streptavidin Allophycocyanin Conjugate for 30-60 minutes at 23° C. The final readout was performed on Envision from PerkinElmer.

[3] = molecular target: human recombinant BACE2 (Homo sapiens (Human), UniProt Q9Y5Z0); assay: In vitro enzymatic BACE2 FRET assay; type: biochemical; conditions: read-out: BACE2 Enzyme IC50
human recombinant BACE2, sequence (Q9Y5Z0 63-518): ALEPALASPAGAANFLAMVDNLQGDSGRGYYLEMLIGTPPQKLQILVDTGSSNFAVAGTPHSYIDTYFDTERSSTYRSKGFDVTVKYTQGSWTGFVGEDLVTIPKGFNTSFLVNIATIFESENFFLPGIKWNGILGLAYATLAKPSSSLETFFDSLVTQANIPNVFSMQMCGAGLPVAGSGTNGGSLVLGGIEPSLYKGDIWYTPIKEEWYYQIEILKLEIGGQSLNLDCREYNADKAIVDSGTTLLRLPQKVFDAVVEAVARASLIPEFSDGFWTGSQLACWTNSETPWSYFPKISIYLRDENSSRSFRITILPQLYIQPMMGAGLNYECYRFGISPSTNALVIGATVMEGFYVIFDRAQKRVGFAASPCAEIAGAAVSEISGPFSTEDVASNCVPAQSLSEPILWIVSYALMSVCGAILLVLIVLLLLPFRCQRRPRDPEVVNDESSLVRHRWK
Protocol: as §1

[4] = molecular target: Recombinant CatD (Homo sapiens (Human), UniProt P07339); assay: In vitro enzymatic Cathepsin D (CatD) FRET assay; type: biochemical; conditions: read-out: Cat D Enzyme IC50
Recombinant CatD, sequence (P07339 65-412): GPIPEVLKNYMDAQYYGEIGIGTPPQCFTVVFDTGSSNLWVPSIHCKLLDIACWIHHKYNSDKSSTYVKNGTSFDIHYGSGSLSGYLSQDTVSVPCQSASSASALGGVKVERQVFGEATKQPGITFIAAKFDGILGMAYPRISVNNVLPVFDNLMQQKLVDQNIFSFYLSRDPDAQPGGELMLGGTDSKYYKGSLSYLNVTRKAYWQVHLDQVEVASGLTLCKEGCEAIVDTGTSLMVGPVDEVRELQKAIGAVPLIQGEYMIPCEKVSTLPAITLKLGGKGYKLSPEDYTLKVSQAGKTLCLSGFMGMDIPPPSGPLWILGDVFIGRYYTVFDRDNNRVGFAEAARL
Protocol: In Vitro Enzymatic Cathepsin D (CatD) FRET Assay Recombinant CatD was expressed in CHO cells. The assay buffer for CatD was 0.05 M citrate pH 3.5, 10% DMSO final, 5 mM CHAPS. […] The assays was effectively started by the addition of different FRET substrates (20 nM for CatD) and the combination was incubated for one hour. The FRET assay was terminated with by addition of tris buffer, which raises the pH to neutrality, and the fluorescence was determined. The FRET substrate was a peptide with commercially available fluorophore and quencher, on opposite sides of the CatD cleavage site. The CatD substrate peptide sequence was based on sequence #1 of Table 1 from Gulnik et al., FEBS Lett. 413(2):379-384 (1997). Proteolytic cleavage of the FRET substrate released quenching of fluorescence (CatD excitation 500 nm and emission 580 nm). The in vitro CatD FRET assay data for each of the Examples is provided in Table 2, conducted by the first procedure described above. […] Thus, with this surprising selectivity profile, the compounds provided herein are believed to minimize, reduce or completely eliminate any risk of retinal atrophy and abnormal development of the eye and of the retinal pigmented epithelium as it relates to the normal function and activity of CatD.

[5] = Aβ40, 24 h incubation, read-out: BACE1 Cell IC50

human recombinant BACE1, sequence (P56817 46-501): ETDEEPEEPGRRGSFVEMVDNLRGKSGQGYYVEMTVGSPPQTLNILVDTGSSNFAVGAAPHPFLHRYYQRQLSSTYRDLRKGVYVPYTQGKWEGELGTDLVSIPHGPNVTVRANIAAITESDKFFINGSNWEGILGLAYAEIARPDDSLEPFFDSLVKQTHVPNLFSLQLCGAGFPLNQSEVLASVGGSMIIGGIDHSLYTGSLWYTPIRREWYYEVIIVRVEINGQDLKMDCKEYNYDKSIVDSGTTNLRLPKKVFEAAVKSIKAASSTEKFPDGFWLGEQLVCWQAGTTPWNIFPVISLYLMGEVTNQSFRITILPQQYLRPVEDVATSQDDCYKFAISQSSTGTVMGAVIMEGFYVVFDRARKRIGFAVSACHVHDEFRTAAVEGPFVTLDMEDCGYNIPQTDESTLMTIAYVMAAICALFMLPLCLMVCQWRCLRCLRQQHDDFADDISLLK

Row | IC50 [1] | IC50 [2, 5] | IC50 [3] | IC50 [4] | SMILES | IC50 ([2]; 24 h, read-out: BACE1 Cell IC50 (μM))
1 | 21.6 nM | 0.0181 µM | 741 nM | > 400000 nM | N#Cc1ccc(/C(F)=C/c2ccc(F)c([C@]34CO[C@H](C(F)F)[C@H]3CSC(N)=N4)c2)nc1 [Example 144, 6-((Z)-2-(3-((4aS,5S,7aS)-2-amino-5-(difluoromethyl)-4a,5,7,7a-tetrahydro-4H-furo[3,4-d][1,3]thiazin-7a-yl)-4-fluorophenyl)-1-fluorovinyl)nicotinonitrile] | 
2 | 108 nM | 0.0151 µM | 2220 nM | > 44400 nM | NC1=N[C@@]2(c3cc(/C=C(\F)c4ccc(OC(F)(F)F)cn4)ccc3F)CO[C@H](C(F)(F)F)[C@H]2CS1 [Example 129, (4aS,5S,7aS)-7a-(2-fluoro-5-((Z)-2-fluoro-2-(5-(trifluoromethoxy)pyridin-2-yl)vinyl)phenyl)-5-(trifluoromethyl)-4a,5,7,7a-tetrahydro-4H-furo[3,4-d][1,3]thiazin-2-amine] | 
3 | 37.2 nM | 0.0588 µM | 3540 nM | > 400000 nM | N#Cc1ccc(/C(F)=C/c2ccc(F)c([C@]34CO[C@H](C(F)(F)F)[C@H]3COC(N)=N4)c2)nc1 (single isomer, unassigned) [Example 142] | 
4 | 1.56 nM | 0.00411 µM | 85.5 nM | 4500 nM | Cc1noc(COc2cnc(/C(F)=C/c3ccc(F)c([C@]45CN(c6ncc(F)cn6)C[C@H]4CSC(N)=N5)c3)cn2)n1 (stereo in doubt) [Example 110, (4aR,7aS)-7a-(2-fluoro-5-((Z)-2-fluoro-2-(5-((3-methyl-1,2,4-oxadiazol-5-yl)methoxy)pyrazin-2-yl)vinyl)phenyl)-6-(5-fluoropyrimidin-2-yl)-4,4a,5,6,7,7a-hexahydropyrrolo[3,4-d][1,3]thiazin-2-amine] | 
5 | 1.01 nM | 0.000542 µM | 15.3 nM | 18900 nM | C#C[C@H](C)Oc1cnc(/C(F)=C/c2ccc(F)c([C@]34CN(c5ncc(F)cn5)C[C@H]3CSC(N)=N4)c2)cn1 [Example 115, (4aR,7aS)-7a-(5-((Z)-2-(5-((S)-but-3-yn-2-yloxy)pyrazin-2-yl)-2-fluorovinyl)-2-fluorophenyl)-6-(5-fluoropyrimidin-2-yl)-4,4a,5,6,7,7a-hexahydropyrrolo[3,4-d][1,3]thiazin-2-amine] | 
6 | 426 nM | 0.112 µM | 427 nM | > 400000 nM | NC1=N[C@@]2(c3cc(/C=C(\F)c4ccc(F)cn4)ccc3F)CO[C@H](C(F)(F)F)[C@H]2CS1 [Example 132, (4aS,5S,7aS)-7a-(2-fluoro-5-((Z)-2-fluoro-2-(5-fluoropyridin-2-yl)vinyl)phenyl)-5-(trifluoromethyl)-4a,5,7,7a-tetrahydro-4H-furo[3,4-d][1,3]thiazin-2-amine] | 
7 | 22.6 nM | 0.00935 µM | 38.1 nM | 26600 nM | NC1=N[C@@]2(c3cc(/C=C(\F)c4cnc(OCC(F)F)cn4)ccc3F)CN(c3ncc(F)cn3)C[C@H]2CS1 [Example 113, (4aR,7aS)-7a-(5-((Z)-2-(5-(2,2-difluoroethoxy)pyrazin-2-yl)-2-fluorovinyl)-2-fluorophenyl)-6-(5-fluoropyrimidin-2-yl)-4,4a,5,6,7,7a-hexahydropyrrolo[3,4-d][1,3]thiazin-2-amine] | 
8 | 1.86 nM | 0.00545 µM | 27.2 nM | 246000 nM | N#Cc1ccc(/C(F)=C/c2ccc(F)c([C@@]34CN(c5ncc(F)cn5)C[C@@H]3CSC(N)=N4)c2)nc1 [Example 103, 6-((Z)-2-(3-((4aS,7aR)-2-amino-6-(5-fluoropyrimidin-2-yl)-4,4a,5,6,7,7a-hexahydropyrrolo[3,4-d][1,3]thiazin-7a-yl)-4-fluorophenyl)-1-fluorovinyl)nicotinonitrile] | 
9 | 3.83 nM | 0.0115 µM | 427 nM | > 400000 nM | N#Cc1ccc(/C(F)=C/c2ccc(F)c([C@]34CO[C@H](CF)[C@H]3CSC(N)=N4)c2)nc1 [Example 131, 6-((Z)-2-(3-((4aS,5S,7aS)-2-amino-5-(fluoromethyl)-4a,5,7,7a-tetrahydro-4H-furo[3,4-d][1,3]thiazin-7a-yl)-4-fluorophenyl)-1-fluorovinyl)nicotinonitrile] | 
10 | 15 nM | 0.2 µM | 605 nM | 382000 nM | NC1=N[C@@]2(c3cc(/C=C(\F)c4ncc(C(F)(F)F)cc4Cl)ccc3F)CO[C@H](C(F)(F)F)[C@H]2CS1 [Example 137, (4aS,5S,7aS)-7a-(5-((Z)-2-(3-chloro-5-(trifluoromethyl)pyridin-2-yl)-2-fluorovinyl)-2-fluorophenyl)-5-(trifluoromethyl)-4a,5,7,7a-tetrahydro-4H-furo[3,4-d][1,3]thiazin-2-amine] | 
11 | 0.241 nM | 0.000682 µM | 3.08 nM | 118000 nM | N#Cc1ccc(/C(F)=C/c2ccc(F)c([C@]34CN(c5ncc(F)cn5)C[C@H]3CSC(N)=N4)c2)nc1 [Example 102, 6-((Z)-2-(3-((4aR,7aS)-2-amino-6-(5-fluoropyrimidin-2-yl)-4,4a,5,6,7,7a-hexahydropyrrolo[3,4-d][1,3]thiazin-7a-yl)-4-fluorophenyl)-1-fluorovinyl)nicotinonitrile] | 
12 | 8.7 nM | 0.0482 µM | 220 nM | 333000 nM | N#Cc1cnc(/C(F)=C/c2ccc(F)c([C@]34CO[C@H](C(F)(F)F)[C@H]3CSC(N)=N4)c2)c(Cl)c1 [Example 140, 6-((Z)-2-(3-((4aS,5S,7aS)-2-amino-5-(trifluoromethyl)-4a,5,7,7a-tetrahydro-4H-furo[3,4-d][1,3]thiazin-7a-yl)-4-fluorophenyl)-1-fluorovinyl)-5-chloronicotinonitrile] | 
13 | 2.36 nM | 0.0086 µM | 353 nM | 87900 nM | C#CCOc1cnc(/C(F)=C/c2ccc(F)c([C@]34CN(C(=O)CC)C[C@H]3CSC(N)=N4)c2)cn1 [Example 122, 1-((4aR,7aS)-2-amino-7a-(2-fluoro-5-((Z)-2-fluoro-2-(5-(prop-2-yn-1-yloxy)pyrazin-2-yl)vinyl)phenyl)-4a,5,7,7a-tetrahydropyrrolo[3,4-d][1,3]thiazin-6(4H)-yl)propan-1-one] | 

Row | SMILES | IC50 [1] | IC50 [2, 5] | IC50 [3] | IC50 [4] | IC50 ([2]; 24 h, read-out: BACE1 Cell IC50 (μM))
14 | C#CCOc1cnc(/C(F)=C/c2ccc(F)c([C@]34CO[C@H](C(F)(F)F)[C@H]3CSC(N)=N4)c2)cn1 [Example 127, (4aS,5S,7aS)-7a-(2-fluoro-5-((Z)-2-fluoro-2-(5-(prop-2-ynyloxy)pyrazin-2-yl)vinyl)phenyl)-5-(trifluoromethyl)-4a,5,7,7a-tetrahydro-4H-furo[3,4-d][1,3]thiazin-2-amine] | 103 nM |  | 2900 nM | 160000 nM | 0.0243 µM
15 | NC1=N[C@@]2(c3cc(/C=C(\F)c4ccc(Cl)cn4)ccc3F)CN(c3ncc(F)cn3)C[C@H]2CS1 [Example 101, (4aR,7aS)-7a-(5-((Z)-2-(5-chloropyridin-2-yl)-2-fluorovinyl)-2-fluorophenyl)-6-(5-fluoropyrimidin-2-yl)-4,4a,5,6,7,7a-hexahydropyrrolo[3,4-d][1,3]thiazin-2-amine] | 1.84 nM | 0.00194 µM | 1.03 nM | 49100 nM | 
